Measurements: PubChem BioAssay AID720701 (Sanford-Burnham Center for Chemical Genomics, 2013)
Calls of active or inactive are those of the source. How the calls were made is not given here.

Biological target: Protein artemis (Homo sapiens) (UniProt Q96SD1)
Assay: IC50 of Artemis nuclease activity blockers – biochemical, fluorescence intensity, dose response (AID 720701)
Conditions: Recombinant Artemis endonuclease

Sequence of Protein artemis (Homo sapiens) (Q96SD1 whole entry, looked up): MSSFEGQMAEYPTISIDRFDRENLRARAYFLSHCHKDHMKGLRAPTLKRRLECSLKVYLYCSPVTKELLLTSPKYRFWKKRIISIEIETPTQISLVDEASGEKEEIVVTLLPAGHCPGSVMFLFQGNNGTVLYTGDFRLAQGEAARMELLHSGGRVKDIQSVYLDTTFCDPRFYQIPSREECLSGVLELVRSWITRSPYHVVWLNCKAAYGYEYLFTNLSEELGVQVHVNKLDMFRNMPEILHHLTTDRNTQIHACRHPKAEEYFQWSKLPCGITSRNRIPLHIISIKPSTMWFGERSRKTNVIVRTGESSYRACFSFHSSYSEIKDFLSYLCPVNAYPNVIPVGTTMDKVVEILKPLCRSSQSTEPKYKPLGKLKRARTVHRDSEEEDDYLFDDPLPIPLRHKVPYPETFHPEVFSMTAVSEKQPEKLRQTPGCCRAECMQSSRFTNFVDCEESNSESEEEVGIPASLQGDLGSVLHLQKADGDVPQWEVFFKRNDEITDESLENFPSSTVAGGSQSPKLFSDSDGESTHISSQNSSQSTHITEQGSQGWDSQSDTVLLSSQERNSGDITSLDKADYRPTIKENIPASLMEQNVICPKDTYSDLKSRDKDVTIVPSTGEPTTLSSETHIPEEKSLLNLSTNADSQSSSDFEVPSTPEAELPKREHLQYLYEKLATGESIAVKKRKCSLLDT

| SMILES | IC50 |
| --- | --- |
| CN1/C(=N\O)c2cccc3cccc1c23 | > 20 µM (inactive) |
| Nc1[nH]n2c(=O)c3c(nc2c1N=Nc1ccc(Cl)cc1)CCCC3 | 16.4 µM |
| N#CC1=C(N)Oc2n[nH]c(-c3cccs3)c2C1c1ccoc1 (stereo unspecified) | > 20 µM (inactive) |
| CCN(CC)c1ccc(/C=N/Nc2nc3ccccc3[nH]2)c(O)c1 | 15.5 µM |
| COc1cccc(N=Nc2c(N)[nH]n3c(=O)cc(-c4ccccc4)nc23)c1 | 16.2 µM |
| Cc1nnc(-c2ccccc2)c(=O)n1/N=C/c1c(O)ccc2ccccc12 | > 20 µM (inactive) |
| COc1ccc(C(=O)c2c(C(F)(F)F)oc3c2C(=O)c2ccccc2C3=O)cc1OC | > 20 µM (inactive) |

The remaining lines, values ahead:

| IC50 | SMILES |
| --- | --- |
| 4.68 µM | O=c1c2ccccc2nc(N/N=C/c2c(O)ccc3ccccc23)n1O |
| 3.64 µM | Oc1ccc2ccccc2c1C=NC12CN3CCN(CN(C3)C1)C2 |
| 2.23 µM | COc1ccc(O)c(/C=N/Nc2nc(Nc3ccccc3)nc(-n3nc(C)cc3C)n2)c1 |
| 1.5 µM | COc1cccc(/C=N/Nc2nc(Nc3ccccc3)nc(-n3nc(C)cc3C)n2)c1O |
| 11 µM | CCCCCCCCC/C(=N\O)c1ccccn1 |
| 9.58 µM | O=C(CCCSc1ccccc1)Nc1nc(-c2ccccn2)cs1 |
| 5 µM | Cc1cc(C)n(-c2nc(Nc3ccccc3C(F)(F)F)nc(-n3nc(C)cc3C)n2)n1 |
| 2.65 µM | COc1ccc(Nc2nc(NCc3ccco3)nc(N/N=C/c3ccccc3)n2)cc1 |
| 3.62 µM | C/C(=N\O)c1ccccc1C(=O)O |
